Nine compounds from ChEMBL document CHEMBL1201862, “PubChem BioAssay data set” (2004) can be followed below.

Activity calls are given as the source filed them.

A short description of experiment [1]: Counterscreen for IDE inhibitors: Luminescence-based cell-based high throughput dose response assay to identify compounds that are cytotoxic to HEK cells. [Related pubchem assays: 434962 (Primary screen (IDE inhibitors in singlicate)), 449730 (Counterscreen (Cytotoxicity in triplicate)), 435028 (Confirmation (IDE inhibitors in triplicate)) …. The format is functional. As to conditions: HEK293. On the technique in general: The purpose of a counterscreen is to sort out artefacts and off-target activity.

The nature of experiment [2]: growth suppression of beta-catenin-knockout colon cells, dose response, cell-based, HCT116, human colon tumor (AID 1045).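 Note: HCT116 colon tumor cells with beta catenin knocked out; cells exposed to compound for 60 hours.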 The format is functional.
Experiment [3] is described as follows: growth suppression of PTEN-null colon cells, dose response, cell-based, HCT116 PTEN knockout (AID 1047).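 Note: HCT116 colon tumor cells with PTEN knocked out; cells exposed to compound for 60 hours before readout; potency for loss of cell viability measured by luminescence.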 The format is functional.
Another experiment addresses T1, Insulin-degrading enzyme (Homo sapiens, UniProt P14735).
T1 sequence (P14735 whole entry): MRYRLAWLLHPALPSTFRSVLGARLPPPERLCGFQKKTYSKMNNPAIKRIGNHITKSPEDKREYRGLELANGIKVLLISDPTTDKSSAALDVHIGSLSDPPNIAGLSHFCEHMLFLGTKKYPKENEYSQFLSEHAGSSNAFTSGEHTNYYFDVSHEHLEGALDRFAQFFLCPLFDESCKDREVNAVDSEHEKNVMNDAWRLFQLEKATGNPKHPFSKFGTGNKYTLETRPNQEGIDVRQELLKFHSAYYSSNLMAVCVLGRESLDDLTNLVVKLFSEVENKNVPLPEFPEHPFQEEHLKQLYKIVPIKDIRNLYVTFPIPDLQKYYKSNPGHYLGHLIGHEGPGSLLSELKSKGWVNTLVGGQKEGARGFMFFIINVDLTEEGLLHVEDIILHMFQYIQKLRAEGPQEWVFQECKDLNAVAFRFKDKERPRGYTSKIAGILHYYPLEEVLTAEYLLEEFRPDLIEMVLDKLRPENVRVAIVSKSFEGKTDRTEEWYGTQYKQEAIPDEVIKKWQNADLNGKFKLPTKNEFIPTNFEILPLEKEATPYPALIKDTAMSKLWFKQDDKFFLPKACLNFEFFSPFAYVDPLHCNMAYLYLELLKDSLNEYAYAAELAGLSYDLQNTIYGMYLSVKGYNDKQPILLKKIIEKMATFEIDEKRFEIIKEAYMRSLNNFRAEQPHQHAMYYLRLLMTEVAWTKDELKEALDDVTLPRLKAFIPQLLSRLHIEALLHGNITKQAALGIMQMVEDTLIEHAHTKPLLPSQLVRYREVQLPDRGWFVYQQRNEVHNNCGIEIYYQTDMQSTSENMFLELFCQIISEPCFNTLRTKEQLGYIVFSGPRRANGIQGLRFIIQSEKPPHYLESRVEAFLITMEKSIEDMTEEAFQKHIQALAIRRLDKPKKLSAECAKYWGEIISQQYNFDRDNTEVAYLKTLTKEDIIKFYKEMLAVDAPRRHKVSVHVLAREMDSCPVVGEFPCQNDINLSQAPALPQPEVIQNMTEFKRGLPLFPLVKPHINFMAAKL
Nature of the experiment: Dose Response: Fluorescence polarization-based cell-based high throughput dose response assay for inhibitors of insulin-degrading enzyme (IDE). [Related pubchem assays: 434962 (Primary screen (IDE inhibitors in singlicate)), 449730 (Counterscreen (Cytotoxicity in triplicate)), 435028 (Confirmation (IDE inhibitors in triplicate)), 434984 (Summary …. The format is functional.

For the next experiment, the target named is Cytochrome P450 2D6 (Homo sapiens, UniProt P10635). The experiment in a line: qHTS Assay for Inhibitors and Substrates of Cytochrome P450 2D6. [Related pubchem assays: 410 ]. The format is ADME. As to conditions: read-out: Potency. In general terms: Quantitative high-throughput screening tests each substance at several concentrations.
Experiment [4] deals with Melanin-concentrating hormone receptor 1 (Homo sapiens, UniProt Q99705). The experiment in a line: Fluorescence-based counterscreen for antagonists of the G-protein coupled receptor 7 (GPR7): cell-based high throughput dose response assay to identify antagonists of the melanin-concentrating hormone receptor 1 (MCHR1). The format is functional.
Experiment [5] addresses T2, Neuropeptides B/W receptor type 1 (Homo sapiens, UniProt P48145).
T2 sequence (P48145 whole entry): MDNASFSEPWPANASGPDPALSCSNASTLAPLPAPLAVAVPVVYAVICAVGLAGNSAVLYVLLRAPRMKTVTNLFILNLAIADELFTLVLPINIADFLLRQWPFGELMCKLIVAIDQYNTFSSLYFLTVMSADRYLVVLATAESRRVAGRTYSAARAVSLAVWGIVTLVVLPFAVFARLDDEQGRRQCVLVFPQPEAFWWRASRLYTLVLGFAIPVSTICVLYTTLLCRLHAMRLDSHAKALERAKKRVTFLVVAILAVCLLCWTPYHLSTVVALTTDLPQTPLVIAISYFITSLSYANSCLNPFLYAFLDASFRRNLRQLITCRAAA
The experiment in a line: Fluorescence-based dose response cell-based high throughput screening assay to identify antagonists of the G-protein coupled receptor 7 (GPR7). [Related pubchem assays: 1952 (Screening assay (GPR7 antagonists).), 1880 (Summary AID.)]. The format is functional.

Another experiment addresses NS3 (Hepatitis C virus, UniProt A3EZJ3). Nature of the experiment: PubChem AID 2173. Also on record: species or system Hepacivirus hominis.
For the next experiment, the target named is Major prion protein (Homo sapiens, UniProt P04156). The format is functional, cell-based.
The target of experiment [6] is Peroxisome proliferator-activated receptor gamma/Nuclear receptor coactivator 2 (Homo sapiens, UniProt P37231). The format is functional.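 Note: agonist potency for raising coactivator recruitment to the receptor.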
Experiment [7] deals with Peroxisome proliferator-activated receptor gamma/Nuclear receptor coactivator 3 (Homo sapiens, UniProt P37231). The format is functional.
The target in experiment [8] is Peroxisome proliferator-activated receptor gamma/Nuclear receptor coactivator 1 (Homo sapiens, UniProt P37231). The format is functional.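 Note: agonist potency as compounds enhance coactivator SRC-1 recruitment to PPARgamma.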
For a further experiment, the target named is T3, Estrogen receptor (Homo sapiens, UniProt P03372).
T3 sequence (P03372 whole entry): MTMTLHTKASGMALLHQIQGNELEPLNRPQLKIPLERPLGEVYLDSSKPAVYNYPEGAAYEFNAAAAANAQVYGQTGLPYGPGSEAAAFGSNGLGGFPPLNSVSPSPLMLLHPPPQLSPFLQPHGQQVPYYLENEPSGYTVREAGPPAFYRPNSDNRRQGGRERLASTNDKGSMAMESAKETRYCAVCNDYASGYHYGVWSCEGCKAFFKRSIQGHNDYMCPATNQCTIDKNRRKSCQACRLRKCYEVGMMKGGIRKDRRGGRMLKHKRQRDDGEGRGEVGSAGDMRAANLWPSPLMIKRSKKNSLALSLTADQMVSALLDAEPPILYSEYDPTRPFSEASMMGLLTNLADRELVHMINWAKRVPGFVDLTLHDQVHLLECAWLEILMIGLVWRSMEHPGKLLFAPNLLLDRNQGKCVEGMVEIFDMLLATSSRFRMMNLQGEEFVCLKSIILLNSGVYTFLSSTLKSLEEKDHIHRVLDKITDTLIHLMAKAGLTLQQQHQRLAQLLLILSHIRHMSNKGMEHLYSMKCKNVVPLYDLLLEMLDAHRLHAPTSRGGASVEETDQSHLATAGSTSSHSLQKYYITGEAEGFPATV
The experiment in a line: potentiators of ERα–SRC-1 coactivator binding, dose response, biochemical, TR-FRET, ERα LBD (AID 737). On the technique in general: TR-FRET usually uses a lanthanide donor and a delayed reading to cut background.

A further experiment has as its target T4, Protein skinhead-1 (Caenorhabditis elegans, UniProt P34707).
T4 sequence (P34707 whole entry): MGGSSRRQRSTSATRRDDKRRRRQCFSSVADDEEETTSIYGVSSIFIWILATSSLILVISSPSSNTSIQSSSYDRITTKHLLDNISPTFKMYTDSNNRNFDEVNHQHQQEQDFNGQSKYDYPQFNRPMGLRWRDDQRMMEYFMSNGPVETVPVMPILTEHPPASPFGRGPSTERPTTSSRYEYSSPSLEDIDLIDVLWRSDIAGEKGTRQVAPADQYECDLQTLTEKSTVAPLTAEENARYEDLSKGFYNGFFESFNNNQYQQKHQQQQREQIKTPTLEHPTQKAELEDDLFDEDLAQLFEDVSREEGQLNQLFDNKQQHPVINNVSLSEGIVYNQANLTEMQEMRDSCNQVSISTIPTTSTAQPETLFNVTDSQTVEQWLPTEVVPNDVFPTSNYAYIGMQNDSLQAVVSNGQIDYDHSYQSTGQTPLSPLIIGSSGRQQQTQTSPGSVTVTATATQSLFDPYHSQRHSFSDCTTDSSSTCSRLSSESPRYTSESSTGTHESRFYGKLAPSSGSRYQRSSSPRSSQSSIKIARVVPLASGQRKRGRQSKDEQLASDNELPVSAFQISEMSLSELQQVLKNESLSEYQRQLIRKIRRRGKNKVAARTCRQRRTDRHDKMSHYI
The format is functional.

The nature of experiment [9]: NIH-3T3 fibroblast cytotoxicity, dose response, cytotoxicity control, cell-based, fluorescence, Alamar Blue, secondary assay (AID 2327).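 Note: NIH-3T3 mouse fibroblasts cultured with fluconazole at 8 µg/mL.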 The format is functional.
The nature of experiment [10]: C. albicans growth with fluconazole, confirmation, fluorescence, retest (AID 2467). The format is functional, cell-based.
In experiment [11] the target is T5, Heat shock factor protein 1 (Mus musculus, UniProt P38532).
T5 sequence (P38532 whole entry): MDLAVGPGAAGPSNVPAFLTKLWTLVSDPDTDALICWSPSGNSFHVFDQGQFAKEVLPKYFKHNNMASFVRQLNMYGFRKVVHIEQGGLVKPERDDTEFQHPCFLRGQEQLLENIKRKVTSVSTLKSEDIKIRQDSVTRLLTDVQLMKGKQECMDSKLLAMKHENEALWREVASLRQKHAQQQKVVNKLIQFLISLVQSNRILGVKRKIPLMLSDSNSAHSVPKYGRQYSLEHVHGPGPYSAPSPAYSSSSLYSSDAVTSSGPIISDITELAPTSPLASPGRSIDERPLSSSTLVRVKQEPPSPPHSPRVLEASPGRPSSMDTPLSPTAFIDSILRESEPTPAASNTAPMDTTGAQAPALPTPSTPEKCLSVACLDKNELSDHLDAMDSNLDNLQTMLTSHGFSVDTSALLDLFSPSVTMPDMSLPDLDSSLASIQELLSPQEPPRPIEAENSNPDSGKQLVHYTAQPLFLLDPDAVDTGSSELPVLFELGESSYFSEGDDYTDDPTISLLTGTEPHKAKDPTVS
Nature of the experiment: HSF1 potentiators in luciferase reporter cells, confirmation, cell-based, NIH3T3, luminescence, dose retest (AID 435004).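 Note: stress induced by proteasome inhibitor MG132 added 30 min after compound; luciferase reporter driven by HSF1 response element in NIH3T3 cells; actives raise luminescence as potentiators of the MG132 stress response.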 The format is functional.

Experiment [12] in a line: Luminescence Cell-Based Dose Confirmation HTS to Identify Activators of 5'UTR Stem-Loop Driven Alpha-Synuclein mRNA Translation in H4 Neuroglioblastoma Cells. [Related pubchem assays: 1829 (Project Summary), 1814 (Primary HTS)]. The format is functional.
Experiment [13] is described as follows: HEp-2 cell cytotoxicity, dose response, cytotoxicity control for RSV inhibitor project, HTS (AID 2410). The format is functional. As to conditions: human respiratory syncytial virus.
The nature of experiment [14]: Luminescence Cell-Based Dose Response HTS to Identify Activators of Luciferase Translation or Activity in H4 […] Cells. [Related pubchem assays: 1829 (Project Summary), 1814 (Primary HTS)]. The format is functional.
The next experiment concerns H4. Nature of the experiment: Luminescence Cell-Based Dose Response HTS to Identify Activators of 5'UTR Stem-Loop Driven Prion Protein mRNA Translation in H4 Neuroglioblastoma Cells. [Related pubchem assays: 1829 (Project Summary), 1814 (Primary HTS)]. As to conditions: Homo sapiens. The format is functional.

By IC50 is commonly meant the midpoint of a concentration-inhibition curve. By EC50 is commonly meant the midpoint of the concentration-response curve. A word on the CC50: it is the concentration that lowers cell viability or growth by half.

Take `O=C1NC(=S)N(C(=O)c2ccc(F)cc2)/C1=C/c1ccccc1`: the IC50 in experiment [1] is listed as 22.4 µM (not active); at Insulin-degrading enzyme, 22.2 µM (not active). The EC50 is 54.1 µM (active) in experiment [2] and 40.8 µM (active) in experiment [3].
Consider `O[C@@H]1CC[C@H]2Cc3ccccc3N=C21`, for which the AC50 on Cytochrome P450 2D6 is 20 µM (inconclusive).
Turning to `N=c1c(C(=O)NC2CCCCC2)cc2c(=O)n3ccccc3nc2n1CC1CCCO1` (stereo not given), the IC50 in experiment [4] and in experiment [5] was > 43.8 µM (not active) in each case.
Regarding `CCCOc1ccc(C(=O)C2=C(O)C(=O)N(c3ccccn3)C2c2ccccc2F)cc1C` (stereo not given), the IC50 in “cells” was > 138 µM (inactive); on NS3, 5.77 µM (active); at Major prion protein it was 2.96 µM (active).
With `COC(=O)c1ccc(COC(=O)c2ccc(S(=O)(=O)N3CCC(C)CC3)cc2)o1`, the EC50 in experiment [6] was > 79.4 µM (not active); in experiment [7], > 79.4 µM (not active); in experiment [8], > 79.4 µM (not active); on Estrogen receptor, 12.6 µM (not active).
With `S=C(Nc1ccccc1)Nc1nc2ccccc2n1CCOc1ccccc1`, the IC50 is 15.9 µM (not active) in experiment [1], > 100 µM (inactive) on Protein skinhead-1 and > 55.9 µM (not active) against Insulin-degrading enzyme. Also, the EC50 in experiment [2] was 15.9 µM (active); in experiment [3], 17.4 µM (active); in experiment [9] it was 8.47 µM (inconclusive); in experiment [10], 2.08 µM (active).
Turning to `Cc1ccccc1CC1(CO)CCCN(C(=O)c2ccccc2Cl)C1` (stereo not given), the EC50 in experiment [11] was > 260 µM (inactive). The values for the IC50 in experiment [4] and in [5] were 33.3 µM (not active) and > 43.8 µM (not active), respectively.
With `Cc1nc(/N=N\c2cc(S(=O)(=O)O)c3cc([N+](=O)[O-])cc(S(=O)(=O)O)c3c2)c(COP(=O)(O)O)c(C=O)c1O`, the AC50 on Cytochrome P450 2D6 was 20 µM (inconclusive).
For the compound `C[C@H]1CCC[C@@H](O)CCC/C=C/c2cc(O)cc(O)c2C(=O)O1`, the EC50 in [12] was 15.3 µM (active); in experiment [14], > 120 µM (not active); in the experiment with H4 it was > 120 µM (not active); at Estrogen receptor it was 9.22 µM (active). Further, the CC50 in experiment [13] was 8.71 µM (active).
